Usually EC50 stands for the midpoint of the concentration-response curve. As usually defined, the bioavailability is the share of a dose that reaches the circulation, judged against a reference dose that is usually intravenous. Read a low bioavailability as little systemic uptake. What is called IC50 is the concentration that gives 50% inhibition.

“Also recorded” adds a separate entry of the source. Read-outs that look alike come from different tables or passages of the source.

One data set relates to FLUV A/WSN/33. The data set is described as follows: microbe, parasite or virus in culture. The format is cell-based, influenza A/WSN/33. Conditions: Influenza A virus, MDCK; for IC50: read-out: IC50 (figure 2a).
For another data set, the system named is HRV-16. The data set is described as follows: HRV assay in H1-HeLa cells by TCID50. The data set is classed as cell-based, human rhinovirus 16. Conditions: Rhinovirus A.
Data set [1] concerns swine influenza virus SIC/SK WT. The data set is described as follows: microbe, parasite or virus in culture. The format is cell-based. To be noted: MDCK, read-out: PAV-431 EC50.
The test system of a further data set is bovine coronavirus. The data set is described as follows: microbe, parasite or virus in culture. Conditions: Betacoronavirus 1, read-out: PAV-431 EC50. The data set is classed as cell-based.
In a further data set the test system is SARS-CoV-2 WA1/2020. As to the kind of experiment: microbe, parasite or virus in culture. The format is cell-based.
Data set [2] relates to respiratory synctial virus straine A-2. As to the kind of experiment: microbe, parasite or virus in culture. The data set is classed as cell-based. To be noted: human respiratory syncytial virus, HEp-2, read-out: PAV-431 EC50.
The test system of the next data set is Nipah virus rNiV-ZsG. The data set is described as follows: microbe, parasite or virus in culture. The data set is classed as cell-based.
The subject of data set [3] is adenovirus serotype 5 strain adenoid 65. As to the kind of experiment: microbe, parasite or virus in culture. The data set is classed as cell-based. Conditions: unidentified adenovirus, A549, read-out: PAV-431 EC50.
In data set [4] the test system is human cytomegalovirus strain AD69. As to the kind of experiment: microbe, parasite or virus in culture. The format is cell-based. To be noted: Human betaherpesvirus 5, H1-HeLa, read-out: PAV-431 EC50.
For another data set, the system named is rabies virus CVS-11. As to the kind of experiment: microbe, parasite or virus in culture. The data set is classed as cell-based.
Data set [5] relates to members of Orthomyxoviridae, Coronaviridae, Paramyxoviridae, Adenoviridae, Herpesviridae and Picornaviridae. As to the kind of experiment: microbe, parasite or virus in culture. Conditions: Orthoherpesviridae, read-out: EC50 across six respiratory viral families. The format is cell-based.
A further data set deals with hERG channel (Homo sapiens, UniProt Q12809). As to the kind of experiment: hERG channel inhibition. A general note: The hERG channel carries a current that helps repolarise heart muscle cells.
Sequence of hERG channel (Q12809 whole entry): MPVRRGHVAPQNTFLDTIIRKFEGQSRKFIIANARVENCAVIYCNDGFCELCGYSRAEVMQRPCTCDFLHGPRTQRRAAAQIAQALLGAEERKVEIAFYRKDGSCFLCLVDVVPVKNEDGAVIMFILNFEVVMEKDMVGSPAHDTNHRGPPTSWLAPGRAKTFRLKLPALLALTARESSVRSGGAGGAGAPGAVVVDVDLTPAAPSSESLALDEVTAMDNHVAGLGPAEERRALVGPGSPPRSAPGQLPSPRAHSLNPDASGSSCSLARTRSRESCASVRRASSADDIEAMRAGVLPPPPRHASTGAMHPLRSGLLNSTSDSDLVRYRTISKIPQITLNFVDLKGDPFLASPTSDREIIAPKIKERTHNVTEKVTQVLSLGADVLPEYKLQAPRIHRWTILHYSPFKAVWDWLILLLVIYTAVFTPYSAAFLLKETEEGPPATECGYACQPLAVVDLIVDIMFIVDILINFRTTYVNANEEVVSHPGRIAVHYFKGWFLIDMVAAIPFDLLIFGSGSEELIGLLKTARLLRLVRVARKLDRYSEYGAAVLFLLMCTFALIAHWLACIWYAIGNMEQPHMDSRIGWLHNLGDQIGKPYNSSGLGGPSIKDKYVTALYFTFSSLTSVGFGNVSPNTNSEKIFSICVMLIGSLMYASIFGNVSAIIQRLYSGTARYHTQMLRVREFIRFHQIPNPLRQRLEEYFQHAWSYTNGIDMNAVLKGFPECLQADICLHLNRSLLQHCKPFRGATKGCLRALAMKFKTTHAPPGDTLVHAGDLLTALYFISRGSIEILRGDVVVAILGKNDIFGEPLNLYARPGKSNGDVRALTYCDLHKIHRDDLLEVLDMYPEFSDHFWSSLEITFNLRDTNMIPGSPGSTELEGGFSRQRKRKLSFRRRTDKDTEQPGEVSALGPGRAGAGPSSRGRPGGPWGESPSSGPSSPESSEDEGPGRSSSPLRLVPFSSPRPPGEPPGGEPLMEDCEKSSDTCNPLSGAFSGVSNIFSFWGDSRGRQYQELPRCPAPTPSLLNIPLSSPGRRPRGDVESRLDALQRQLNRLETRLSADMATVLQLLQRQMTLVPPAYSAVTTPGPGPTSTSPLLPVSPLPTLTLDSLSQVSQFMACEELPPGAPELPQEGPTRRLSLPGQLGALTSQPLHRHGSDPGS
The next data set has as its target 5-HT2B (Homo sapiens, UniProt P41595). As to the kind of experiment: CEREP panel off-target: 5-HT2B. To be noted: high concentrations.
A further data set concerns RSV A-2 virus. As to the kind of experiment: RSV cotton rat study. The data set is classed as in vivo. Conditions: cotton rats, 2 mg kg^−1 IP twice daily, days −1 to 4, plaque assay. On the procedure: Female cotton rats, approximately 5 weeks of age, were obtained from Envigo (formerly Harlan), ear-tagged for identification purposes, and allowed to acclimate for >1 week prior to study start. Animals were housed individually. Vehicle or drug (2 mg kg^−1) was administered by an intraperitoneal route twice daily on study days −1 through day 4. On day 0, animals were infected with 1 × 10^5 PFU of RSV A-2 virus originally obtained from ATCC (VR-1540), administered in a 50 µl volume by an intranasal route approximately 2 h after the morning treatment dose. Back titration of the viral stock and diluted inoculum was performed to confirm the titre of the RSV stock used for infection. All inoculations were performed while the animals were under the influence of inhalant anaesthesia. All animals were euthanized on day 5 and the lungs were processed for determination of RSV titres by plaque assay.

Another data set deals with p62/SQSTM1. The data set is classed as cell-based.
A further data set concerns the target 14-3-3 zeta (YWHAZ) (Homo sapiens, UniProt P63104). The data set is classed as binding.
For data set [6] the following is noted: rat, in vivo.
The next data set is described as follows: in vivo. Conditions: rat.
Data set [7] is described as follows: Pharmacokinetics, tissue uptake and safety in rats. Conditions: 5 mg kg^−1 IP.
In data set [8] the test system is FLUV nucleoprotein capsid assembly. The data set is classed as biochemical, influenza (FLUV).
The subject of another data set is BoCoV BRCV-OK-0514-2. As to the kind of experiment: microbe, parasite or virus in culture. The data set is classed as cell-based, bovine coronavirus. Conditions: Betacoronavirus 1.
The test system of data set [9] is porcine epidemic diarrhoea virus (PEDV). The data set is described as follows: PEDV pig study. The format is in vivo. Conditions: newborn pigs infected with PEDV, 4 mg kg^−1 intramuscular, relative to control. On the procedure:
18 litters comprised of 91 individuals of newborn (2–4 days old) crossbred pigs weighing 3 kg were randomized to control (vehicle) or treatment groups. Animals were infected with 1 × 10^5 PFU of PEDV administered orally. Vehicle or drug was administered intramuscular at 4 mg kg^−1 immediately after challenge and again 24 h post-infection. Compound efficacy was determined by survivability. Endpoint of study was 6 days post-infection.

The test system of the next data set is MHV-68. As to the kind of experiment: microbe, parasite or virus in culture. To be noted: Murine herpesvirus, BHK-21.
Where [10] appears, read: read-out: EC50 against infectious FLUV.
Setting [11] is: HRV16, HRV-16, MOI = 5, H1-HeLa cells, TCID50, read-out: EC50.

Sequence of 5-HT2B (P41595 whole entry, species assumed): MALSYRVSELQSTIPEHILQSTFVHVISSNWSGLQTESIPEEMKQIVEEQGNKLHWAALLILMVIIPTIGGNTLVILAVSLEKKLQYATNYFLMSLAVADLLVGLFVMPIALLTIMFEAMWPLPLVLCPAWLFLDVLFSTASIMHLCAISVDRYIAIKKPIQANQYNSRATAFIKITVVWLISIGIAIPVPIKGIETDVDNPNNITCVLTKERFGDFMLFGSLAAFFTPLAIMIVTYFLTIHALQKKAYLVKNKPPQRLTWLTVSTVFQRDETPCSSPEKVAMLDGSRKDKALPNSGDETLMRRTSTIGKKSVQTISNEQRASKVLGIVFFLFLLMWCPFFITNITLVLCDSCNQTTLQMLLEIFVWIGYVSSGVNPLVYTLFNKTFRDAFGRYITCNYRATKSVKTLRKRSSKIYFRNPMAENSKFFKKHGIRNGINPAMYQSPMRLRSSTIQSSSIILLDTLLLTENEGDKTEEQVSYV
Sequence of 14-3-3 zeta (YWHAZ) (P63104 whole entry): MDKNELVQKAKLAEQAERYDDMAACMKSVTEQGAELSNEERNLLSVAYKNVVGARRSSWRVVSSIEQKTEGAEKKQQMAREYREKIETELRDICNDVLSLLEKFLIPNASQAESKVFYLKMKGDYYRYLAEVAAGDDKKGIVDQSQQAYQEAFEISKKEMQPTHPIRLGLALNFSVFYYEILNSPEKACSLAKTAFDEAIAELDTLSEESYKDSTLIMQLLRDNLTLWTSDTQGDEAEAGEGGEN

For the compound `COc1c(CNC(=O)c2cc(C3CC3)nn2C)cccc1OC(F)(F)F` [PAV-431], the concentration giving a half-maximal response (EC50) is 25 nM in the data set with FLUV A/WSN/33 (read-out: PAV-431 EC50); below 20 nM with HRV-16 (HRV16, H1-HeLa, read-out: PAV-431 EC50); 25 nM in data set [1]; 50 nM in the data set with bovine coronavirus; 100 nM with SARS-CoV-2 WA1/2020 (Severe acute respiratory syndrome coronavirus 2, Vero C1008, read-out: PAV-431 EC50); below 25 nM in data set [2]. Further, the concentration giving a half-maximal response (EC50) in the data set with Nipah virus rNiV-ZsG (Henipavirus nipahense, read-out: PAV-431 EC50) was at most 50 nM; in data set [3], below 100 nM; in [4], 25 nM; with rabies virus CVS-11 (Rabies virus CVS-11, read-out: PAV-431 EC50) it was above 400 nM; in [5], at most 100 nM. Also, the “efficacy against SARS-CoV-2 WA 1/2020” value with SARS-CoV-2 WA1/2020 is reported as “significant efficacy”. Moreover, the “activity against Nipah virus” value in the data set on Nipah virus rNiV-ZsG is listed as “comparably potent”. Besides, the “activity against rabies virus” value in the data set with rabies virus CVS-11 was “did not show significant activity against rabies virus”. For the same compound, the hERG channel inhibition result at hERG channel was “negative for hERG channel inhibition”. Besides, the “off-target effect at 5-HT2B” value at 5-HT2B is “potential off-target effects at high concentrations could be relevant”. Further, in the data set with RSV A-2 virus, the “RSV titre in lungs relative to vehicle” value was “significant drop in viral titre; also recorded: small but statistically significant drop in RSV titre”. In the data set with p62/SQSTM1, the “amount of p62 in eluate” value is recorded as “restored with PAV-431 treatment”. In addition, the “14-3-3 binding from PAV-104 resin flowthrough” value at 14-3-3 zeta (YWHAZ) is on record as “a substantial amount of the 14-3-3 in the PAV-104 resin flowthrough bound to the PAV-431 resin”. The clearance entry in data set [6] is given as “quick clearing tendency”. For the same compound, the distribution in brain result in [6] is “good distribution in brain and lungs”. Besides, in [6], the distribution in lungs result was “good distribution in brain and lungs”. In [6], the distribution in plasma entry is “good distribution in plasma”. Also, in data set [6], the volume of distribution entry is “better volume of distribution than PAV-104”. Also, the concentration in lungs in [6] (ip) is 167 nM. Besides, the concentration in plasma in data set [6] (ip) worked out at 108 nM. Further, in [6] (po), the “levels obtained, oral route” value is given as “too low to analyse the PK properties”. Further, the bioavailability in the data set “in vivo” was determined as 59%. The safety of dose entry in [7] was “found to be safe”.

On to `COc1cccc(CNC(=O)c2cc(C(C)(C)C)nn2C)c1OC` [PAV-773], for which, in data set [8], the “assembly of FLUV nucleoprotein into a completed capsid” value was “blocked assembly of FLUV nucleoprotein into a completed capsid in a dose-dependent manner”. In addition, the EC50 in the data set with FLUV A/WSN/33 is below 1000 nM; in the data set on FLUV A/WSN/33 (setting [10]), 177 nM; with BoCoV BRCV-OK-0514-2, below 1000 nM; with HRV-16 (setting [11]), below 1000 nM; with MHV-68 it was below 1000 nM. In the data set on FLUV A/WSN/33, the IC50 is 176 nM. The likelihood of survival result in data set [9] was “significantly increased the likelihood of survival”.

Turning to `COc1cccc(CNC(=O)c2cc(C3CC3)nn2C)c1OC` [PAV-835], the “assembly of FLUV nucleoprotein into a completed capsid” value in [8] is on record as “blocked assembly of FLUV nucleoprotein into a completed capsid in a dose-dependent manner”. Besides, the EC50 was below 1000 nM in the data set on FLUV A/WSN/33; 42 nM with FLUV A/WSN/33 (setting [10]); below 1000 nM in the data set on BoCoV BRCV-OK-0514-2; below 1000 nM with HRV-16 (setting [11]); below 1000 nM with MHV-68. The 50% inhibitory concentration (IC50) with FLUV A/WSN/33 was found to be 14.8 nM. Moreover, the likelihood of survival result in data set [9] is “significantly increased the likelihood of survival”.

For the origin of these results see paper PMC11285769, “A pan-respiratory antiviral chemotype targeting a transient host multi-protein complex” (Open Biology, 2024).
